Article PMC10940605, “Design, synthesis and in vitro anticancer activity of some new lomefloxacin derivatives” (Scientific Reports, 2024)

Key:
leukemia SR cells [1] = assay: Apoptosis, Annexin-V-FITC/PI
leukemia SR cells [2] = assay: Cell cycle analysis, PI flow cytometry; assay type: cell-based, human; parameters: increase of cells at pre-G1 phase vs control: concentration or dose not given beside the values
Experimental: The cells were washed twice using Ice-cold phosphate buffer saline (PBS). • Centrifugation was used to collect the cells, then the cells were fixed in 70% (v/v) ethanol, washed with PBS and re-suspended with 0.10 mg/mL RNase. • After that, cells were stained with […] propidium iodide (PI) and evaluated by flow cytometry using FACSCalibur (Becton Dickinson).

CCn1cc(C(=O)NN=Cc2cccs2)c(=O)c2cc(F)c(N3CCNC(C)C3)c(F)c21 (stereo not shown) [Compound 3e, 1-Ethyl-6,8-difluoro-7-(3-methylpiperazin-1-yl)-4-oxo-N'-(thiophen-2-ylmethylene)-1,4-dihydroquinoline-3-carbohydrazide]
late apoptosis elevation vs control (leukemia SR cells [1]): 27.16 folds | Apoptosis %Early (leukemia SR cells [1]; 3e at 1.90 µM, 24 h): 5.27% | Apoptosis %Late (leukemia SR cells [1]; 3e at 1.90 µM, 24 h): 18.20% | Apoptosis %Total (leukemia SR cells [1]; 3e at 1.90 µM, 24 h): 26.19% | Necrosis (leukemia SR cells [1]; 3e at 1.90 µM, 24 h): 2.72% | increase of cells at pre-G1 phase vs control (leukemia SR cells [2]): 10.19 folds | %G0-G1 (leukemia SR cells [2]; 3e at 1.90 µM, 24 h): 24.66% | %G2-M (leukemia SR cells [2]; 3e at 1.90 µM, 24 h): 49.26% | %Pre-G1 (leukemia SR cells [2]; 3e at 1.90 µM, 24 h): 26.19% | %S (leukemia SR cells [2]; 3e at 1.90 µM, 24 h): 26.08%
